Measured values published in article PMC6424904, “The Utility of Efavirenz-based Prophylaxis Against HIV Infection. A Systems Pharmacological Analysis” (Frontiers in Pharmacology, 2019).
Like-named read-outs stand apart in the source and are kept apart here.

Tests used:
[1] = human, in vivo
Source text: In our work, we modeled metabolic autoinduction similarly to the model proposed by Zhu et al. ([2009]). We defined the term α as the ratio of the mean clearance on day 1 to the mean clearance at steady state (after autoinduction). […] For each virtual patient generated from the population pharmacokinetic model, the individual clearance at steady state was available and the clearance at day 1 was computed using CLi,t0 = α·CLi, SS. Zhu et al. ([2009]) proposed a model for time-dependent autoinduction that we used herein
(4) CLi(t)=CLi,t0+(CLi,SS-CLi,t0)·t-t0/(t-t0)+T50
where CLi(t) is the individual clearance rate at the time t and t0 is the time of the first EFV dose. CLi(0) and CLi, SS represent the clearance rates at day 1 and at steady state.

[2] = system: wild-type HIV; design: method as in Shen et al., 2008; details: ref Shen et al., 2008, cited from earlier work
[3] = system: HIV Y181C mutant; design: method as in Sampah et al., 2011; details: ref Sampah et al., 2011; cited from earlier work
[4] = system: HIV K103N mutant; design: method as in Sampah et al., 2011; details: ref Sampah et al., 2011; cited from earlier work
[5] = system: HIV G190S mutant; design: method as in Sampah et al., 2011; details: ref Sampah et al., 2011; cited from earlier work
[6] = system: plasma proteins (human serum albumin and α-1-acid glycoprotein); details: cited from earlier work; for unbound fraction in human plasma (fu): ref Almond et al., 2005, Fayet et al., 2008, Burhenne et al., 2010, Avery et al., 2011, 2013a
[7] = design: method as in Mukonzo et al., 2009; details: healthy men, ref Mukonzo et al., 2009, cited from earlier work
[8] = cited from earlier work; for typical population clearance value: 70kg; for typical population clearance value / relative change in apparent oral clearance vs reference genotype: ref Dickinson et al. (2015)
[9] = cited from earlier work
[10] = no reference given; cited from earlier work
[11] = in vivo; cited from earlier work
[12] = in vivo; cited from earlier work; remark: listed apart in the source
[13] = genotype GG/TC or CC/CA or AA/CC
[14] = genotype GG/TC or CC/CA or AA/CT
[15] = genotype GG/TC or CC/CC/CT or TT
[16] = genotype GT/TC or CC/CA or AA/CC
[17] = genotype GT/TC or CC/CC/CT or TT

SMILES: O=C1Nc2ccc(Cl)cc2[C@@](C#CC2CC2)(C(F)(F)F)O1 [efavirenz]
- α, ratio of mean clearance on day 1 to mean clearance at steady state [1]: 0.58
- IC50 ([2]; corrected for protein binding): 5.4 nM
- hill coefficient m (± sd) [2]: 1.69 (±0.08)
- hill coefficient m as multiple of m(wt) [3]: 0.9·m(wt)
- hill coefficient m as multiple of m(wt) [4]: 0.83·m(wt)
- hill coefficient m as multiple of m(wt) [5]: 0.6·m(wt)
- unbound fraction in human plasma (fu) [6]: ≤ 1%
- unbound fraction in human plasma (fu) ([6]; listed as EFV): < 1%
- fu,plasma used for IC50 correction ([6]; value used to obtain IC50plasma): 0.2%
- half life ([7]; slow metabolisers): 54.7 h
- half life ([7]; wild type): 37.3 h
- typical population clearance value ([8]; Missing genotype): 8.7 L/h
- typical population clearance value [8, 13]: 9.0 L/h
- typical population clearance value [8, 14]: 11.4 L/h
- typical population clearance value ([8]; genotype GG/TC or CC/CC/CC): 8.7 L/h
- typical population clearance value [8, 15]: 3.5 L/h
- typical population clearance value [8, 16]: 2.2 L/h
- typical population clearance value ([8]; genotype GT/TC or CC/CC/CC): 5.0 L/h
- typical population clearance value [8, 17]: 4.6 L/h
- typical population clearance value ([8]; genotype GT/TT/CA or AA/CC): 8.2 L/h
- typical population clearance value ([8]; genotype GT/TT/CA or AA/CT): 8.4 L/h
- typical population clearance value ([8]; genotype GT/TT/CC/CC): 8.9 L/h
- typical population clearance value ([8]; genotype GT/TT/CC/CT or TT): 8.1 L/h
- typical population clearance value ([8]; genotype TT/TT/CA or AA/CC): 5.2 L/h
- typical population clearance value ([8]; genotype TT/TT/CA or AA/CT): 8.9 L/h
- typical population clearance value ([8]; genotype TT/TT/CC/CC): 4.0 L/h
- typical population clearance value ([8]; genotype TT/TT/CC/CT or TT): 4.1 L/h
- relative change in apparent oral clearance vs reference genotype ([8]; Missing genotype): 0.73
- relative change in apparent oral clearance vs reference genotype [8, 13]: 0.75
- relative change in apparent oral clearance vs reference genotype [8, 14]: 0.96
- relative change in apparent oral clearance vs reference genotype ([8]; genotype GG/TC or CC/CC/CC): 0.73
- relative change in apparent oral clearance vs reference genotype [8, 15]: 0.30
- relative change in apparent oral clearance vs reference genotype [8, 16]: 0.18
- relative change in apparent oral clearance vs reference genotype ([8]; genotype GT/TC or CC/CC/CC): 0.42
- relative change in apparent oral clearance vs reference genotype [8, 17]: 0.39
- relative change in apparent oral clearance vs reference genotype ([8]; genotype GT/TT/CA or AA/CC): 0.69
- relative change in apparent oral clearance vs reference genotype ([8]; genotype GT/TT/CA or AA/CT): 0.71
- relative change in apparent oral clearance vs reference genotype ([8]; genotype GT/TT/CC/CC): 0.75
- relative change in apparent oral clearance vs reference genotype ([8]; genotype GT/TT/CC/CT or TT): 0.68
- relative change in apparent oral clearance vs reference genotype ([8]; genotype TT/TT/CA or AA/CC): 0.44
- relative change in apparent oral clearance vs reference genotype ([8]; genotype TT/TT/CA or AA/CT): 0.75
- relative change in apparent oral clearance vs reference genotype ([8]; genotype TT/TT/CC/CC): 0.33
- relative change in apparent oral clearance vs reference genotype ([8]; genotype TT/TT/CC/CT or TT): 0.34
- absorption rate constant ka ([8]; in vivo): 0.6 h⁻¹
- interindividual variability CVIIV(CLss/Fbio) ([8]; in vivo): 36.6%
- interoccasion variability CVIOV(CLss/Fbio) ([8]; in vivo): 21.0%
- apparent volume of distribution V/Fbio ([8]; population mean, 70 kg individual, ref Dickinson et al., 2015): 282 L
- apparent oral clearance CL/Fbio (CLss/Fbio) ([8]; population value, 70 kg individual, reference (wild-type) CYP genotype, after autoinduction, ref Dickinson et al., 2015): 11.9 L/h
- T50, time where the clearance rate reaches half of its steady-state value ([9]; in vivo): 245 h
- average clearance on the first day ([9]; ref Zhu et al., 2009): 5.76 L/h
- LogP [10]: ≈ 4
- semen-to-plasma ratio of total EFV concentrations [11]: 3.4–5%
- cervical fluid-to-plasma ratio of total concentrations [12]: 0.4%
